Measured values published in EP4644383A1 (Jiangsu Yahong Meditech Co., Ltd., priority 2022, dated 2024).
Read-outs that look alike come from different tables or passages of the source.

How the values were obtained:
[1] = tested on: RT112 cells (bladder cancer cells); experiment: Inhibition of proliferation activity of RT112 cells (CellTiter-Glo); type: cell-based; settings: Homo sapiens, read-out: IC50 (nM) RT112
Procedure: The present experiment used CellTiter-Glo® Luminescent Cell Viability Assay (Promega: G7573) kit, which was a homogeneous cell viability detection method and determined the cell viability of cultured cells by quantifying ATP. • ① RT112 cells were cultured in MEM complete medium (Gibco: 51200038) (10% FBS (Gibco: 10091-148)+1% Pen Strep (Gibco: 15140122)+1% NEAA (Gibco: 11140050)) under the condition of 37°C and 5% CO2. • (2) The cells in logarithmic growth phase were harvested and counted using a […]. The trypan blue exclusion method was used to detect cell viability to ensure the cell viability was above 90%. • ③ The cell density was adjusted using MEM complete medium, and then, the cells were seeded into a 96-well cell culture plate at 90 µL/well with a total of 3000 cells. • ④ The 96-well plate with the cells was placed under the condition of 37°C and 5% CO2 to be cultured for 24 hours. • ⑤ 24 hours later, a 10-fold drug solution was prepared starting from a maximum drug concentration of 10 µM and 4-fold serially diluted into10 concentrations. Then, 10 µL of each of the serially diluted compounds was transferred to the corresponding experimental wells of a 96-well cell plate, with two replicates for each drug concentration. • ⑥ The 96-well plate with the cells that had been treated with the drugs was placed under the condition of 37°C and 5% CO2 to be further cultured for 72 hours, and then analyzed by CTG. • ⑦ The CTG reagent was melted and the cell plate was equilibrated to room temperature for 30 minutes. • ⑧ 50 µL of the CTG solution was added to each well. • ⑨ The cell plate was shaken on an orbital shaker for 5 minutes to lyse the cells. • ⑩ The cell plate was placed at room temperature for 20 minutes to stabilize the luminescence signal. The luminescence values were read to collect the data. • ⑪ The data were analyzed using XLFit excel plugin version 5.5.0.5, and fitted with non-linear S-curve regression to obtain the dose-response curves and thus calculate the IC50 values. Y = Bottom + (Top-Bottom)/((1+(IC50/X))^(∧) HillSlope [formula]
"Top" refers to the maximum response, "Bottom" refers to the minimum response, and "HillSlope" refers to the slope of the curve.
"Max" represents the average value of the cell+DMSO control, and "Min" represents the average value of the medium control+DMSO.

[2] = target: T1, FGFR2 (Homo sapiens, UniProt P21802); experiment: FGFR2 kinase activity inhibition assay (LanthaScreen TR-FRET); type: biochemical
T1 construct: FGFR2's cytoplasmic domain [399-821 (terminal) amino acids]; purchased Carna 08-134
T1 sequence (P21802 399-821): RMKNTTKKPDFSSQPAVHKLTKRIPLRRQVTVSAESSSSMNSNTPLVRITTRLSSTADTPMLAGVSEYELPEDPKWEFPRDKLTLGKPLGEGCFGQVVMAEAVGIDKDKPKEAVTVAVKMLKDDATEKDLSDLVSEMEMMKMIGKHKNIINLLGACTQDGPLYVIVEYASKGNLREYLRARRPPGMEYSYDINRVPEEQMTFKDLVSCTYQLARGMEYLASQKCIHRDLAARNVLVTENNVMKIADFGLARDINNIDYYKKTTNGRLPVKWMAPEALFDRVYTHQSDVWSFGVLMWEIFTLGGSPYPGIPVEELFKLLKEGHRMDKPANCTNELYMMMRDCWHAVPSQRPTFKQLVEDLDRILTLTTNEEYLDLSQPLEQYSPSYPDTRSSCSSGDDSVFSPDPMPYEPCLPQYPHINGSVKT
Method in brief: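 GST-fused FGFR2 cytoplasmic domain (aa 399-821) was run as in the FGFR1 protocol: preincubated 10 min at 23 °C with compound (3-fold series from 1 µM) in 50 mM HEPES pH 7.5, 10 mM MgCl2, 4 mM DTT, 1% DMSO. A 2× mix of 28 nM fluorescein-poly GT/28 µM ATP then reacted 30 min. Tb-PY20/EDTA quench preceded the TR-FRET 520/495 read.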

[3] = target: T2, FGFR4 (Homo sapiens, UniProt P22455); experiment: FGFR4 kinase activity inhibition assay (LanthaScreen TR-FRET); type: biochemical
T2 construct: FGFR4's cytoplasmic domain [460-802 (terminal) amino acids]; purchased Carna 08-136
T2 sequence (P22455 460-802): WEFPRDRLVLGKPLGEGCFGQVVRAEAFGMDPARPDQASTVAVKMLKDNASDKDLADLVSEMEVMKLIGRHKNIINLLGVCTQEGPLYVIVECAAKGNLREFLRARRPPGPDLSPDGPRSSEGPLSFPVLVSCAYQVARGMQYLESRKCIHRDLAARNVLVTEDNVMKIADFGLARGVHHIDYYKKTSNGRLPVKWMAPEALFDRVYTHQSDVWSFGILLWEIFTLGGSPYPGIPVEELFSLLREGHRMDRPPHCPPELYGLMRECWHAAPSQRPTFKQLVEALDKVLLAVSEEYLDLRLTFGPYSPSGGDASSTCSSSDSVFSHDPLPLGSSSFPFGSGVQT
Method in brief: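 GST-tagged cytoplasmic domains (FGFR2 aa 399-821; FGFR4 aa 460-802) were preincubated 10 min at 23 °C with compound (top 1 µM, threefold dilutions). Then 28 nM fluorescein-poly GT and 28 µM ATP were added for 30 min at 23 °C in HEPES pH 7.5 buffer. Tb-PY20 TR-FRET 520/495 ratio gave % inhibition versus DMSO and no-enzyme controls.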

[4] = RT-112, RT112 cells, 72 hours, CTG
[5] = FGFR2 kinase, TR-FRET, read-out: IC50 (nM) FGFR2
[6] = FGFR4 kinase, TR-FRET, read-out: IC50 (nM) FGFR4

Row | SMILES | IC50 [1, 4] [nM] | IC50 [2, 5] [nM] | IC50 [3, 6] [nM] | IC50 [2] [nM] | IC50 [3] [nM] | IC50 ([1]; RT-112, 72 h) [nM]
1 | CC(Oc1ccc2[nH]nc(-c3cnn(C)c3)c2c1)c1cccn2ncnc12 (stereo not drawn) [Example 101, 8-(1-((3-(1-methyl-1H-pyrazol-4-yl)-1H-indazol-5-yl)oxy)ethyl)-[1,2,4]triazolo[1,5-a]pyridine] | 85 |  |  |  |  | 
2 | C[C@@H](Oc1ccc2[nH]nc(-c3cnn(CCN4CCS(=O)(=O)CC4)c3)c2n1)c1c(Cl)cncc1Cl [Example 55, (R)-4-(2-(4-(5-(1-(3,5-dichloropyridin-4-yl)ethoxy)-1H-pyrazolo[4,3-b]pyridin-3-yl)-1H-pyrazol-1-yl)ethyl)thiomorph oline 1,1-dioxide] | 15.9 |  |  |  |  | 
3 | COCC(=O)N1CC(n2cc(-c3n[nH]c4ccc(OC(C)c5cccc6nccnc56)cc34)cn2)C1 (stereo not drawn) [Example 188, 2-methoxy-1-(3-(4-(5-(1-(quinoxalin-5-yl)ethoxy)-1H-indazol-3-yl)-1H-pyrazol-1-yl)azetidin-1-yl)ethan-1-one] | 10.7 | 1 to 10 | 10 to 100 |  |  | 
4 | C[C@@H](Oc1ccc2[nH]nc(-c3cnn(C)c3)c2n1)c1c(Cl)cncc1Cl [Example 29, (R)-5-(1-(3,5-dichloropyridin-4-yl)ethoxy)-3-(1-methyl-1H-pyrazol-4-yl)-1H-pyrazolo[4,3-b]pyridine] | 3.6 | < 1 | 1 to 10 |  |  | 
5 | CC(Oc1ccc2[nH]nc(-c3cnn(C4CN(C(=O)C(C)(C)O)C4)c3)c2c1)c1cccc2nccnc12 (stereo not drawn) [Example 190, 2-hydroxy-2-methyl-1-(3-(4-(5-(1-(quinoxalin-5-yl)ethoxy)-1H-indazol-3-yl)-1H-pyrazol-1-yl)azetidin-1-yl)propan-1-one] | 18.6 | 1 to 10 | 10 to 100 |  |  | 
6 | Cc1ccc2ncccc2c1C(C)Oc1ccc2[nH]nc(-c3cnn(C)c3)c2c1 (stereo not drawn) [Example 95, 6-methyl-5-(1-((3-(1-methyl-1H-pyrazol-4-yl)-1H-indazol-5-yl)oxy)ethyl)quinolinee] | 23.4 |  |  | 1 to 10 | 10 to 100 | 
7 | CC(Oc1cc2c(-c3cnn(C)c3)n[nH]c2cc1F)c1cc(Cl)cc2nccnc12 (stereo not drawn) [Example 227, 7-chloro-5-(1-((6-fluoro-3-(1-methyl-1H-pyrazol-4-yl)-1H-indazol-5-yl)oxy)ethyl)qu inoxaline] | 34.5 |  |  |  |  | 
8 | CC(Oc1ccc2[nH]nc(-c3cnn(C)c3)c2c1)c1cccc2nccnc12 (stereo not drawn) [Example 92, 5-(1-((3-(1-methyl-1H-pyrazol-4-yl)-1H-indazol-5-yl)oxy)ethyl)quin oxaline] | 24.3 | 1 to 10 | 1 to 10 |  |  | 
9 | CC(Oc1ccc2[nH]nc(-c3cnn(C)c3)c2c1)c1c(C(F)F)ccc2ncccc12 (stereo not drawn) [Example 127, 6-(difluoromethyl)-5-(1-((3-(1-methyl-1H-pyrazol-4-yl)-1H-indazol-5-yl)oxy)ethyl)quinoline] | 25.5 | 1 to 10 | > 100 |  |  | 
10 | C[C@@H](Oc1ccc2[nH]nc(-c3ccc(S(C)(=N)=O)nc3)c2c1)c1c(Cl)cncc1Cl (stereo partly drawn) [Comparative Example 85, (5-(5-((R)-1-(3,5-dichloropyridin-4-yl)ethoxy)-1H-indazol-3-yl)pyridin-2-yl)(imino)(methyl)-sulfanone, reference compound] |  |  | 10 to 100 |  |  | 58.8
11 | CC(Oc1ccc2[nH]nc(-c3cnn(C)c3)c2c1)c1cccc2ncccc12 (stereo not drawn) [Example 88, 5-(1-((3-(1-methyl-1H-pyrazol-4-yl)-1H-indazol-5-yl)oxy)ethyl)quin oline] | 167 | 1 to 10 | 10 to 100 |  |  | 
12 | CC(=O)N1CC(n2cc(-c3n[nH]c4ccc(OC(C)c5cccc6nccnc56)cc34)cn2)C1 (stereo not drawn) [Example 218, 1-(3-(4-(5-(1-(quinoxalin-5-yl)ethoxy)-1H-indazol-3-yl)-1H-pyrazol-1-yl)azetidin-1-yl)ethan-1-one] | 16.7 | 1 to 10 | 10 to 100 |  |  | 
13 | Cc1cc2nccnc2c(C(C)Oc2ccc3[nH]nc(-c4cnn(C)c4)c3c2)n1 (stereo not drawn) [Example 183, 7-methyl-5-(1-((3-(1-methyl-1H-pyrazol-4-yl)-1H-indazol-5-yl)oxy)ethyl)pyridino [3,4-b]pyrazine] | 9.7 | 1 to 10 | 10 to 100 |  |  | 
14 | C[C@@H](Oc1cc(F)c2[nH]nc(-c3cnn(CCN4CCOCC4)c3)c2c1)c1c(Cl)cncc1Cl [Example 12, (R)-4-(2-(4-(5-(1-(3,5-dichloropyridin-4-yl)ethoxy)-7-fluoro-1H-indazol-3-yl)-1H-pyrazol-1-yl)ethyl)morph oline] | 43.1 | 1 to 10 | 10 to 100 |  |  | 
15 | CC(Oc1ccc2[nH]nc(-c3cnn(C)c3)c2c1)c1cc(Cl)cc2nccnc12 (stereo not drawn) [Example 136, 7-chloro-5-(1-((3-(1-methyl-1H-pyrazol-4-yl)-1H-indazol-5-yl)oxy)ethyl)qu inoxaline] | 47.5 | 1 to 10 | 10 to 100 |  |  | 
16 | CC(Oc1ccc2[nH]nc(-c3cnn(C)c3)c2c1)c1nc(C(F)F)cc2nccnc12 (stereo not drawn) [Example 236, 7-(difluoromethyl)-5-(1-((3-(1-methyl-1H-pyrazol-4-yl)-1H-indazol-5-yl)oxy)ethyl)pyridino[3,4-b]pyrazine] | 15.5 | 1 to 10 | 10 to 100 |  |  | 
17 | C[C@@H](Oc1ccc2[nH]nc(-c3cnn(CCN4CCN(C)C(=O)C4)c3)c2n1)c1c(Cl)cncc1Cl [Example 54, (R)-4-(2-(4-(5-(1-(3,5-dichloropyridin-4-yl)ethoxy)-1H-pyrazolo[4,3-b]pyridin-3-yl)-1H-pyrazol-1-yl)ethyl)-1-methylpiperazin-2-one] | 14 |  |  |  |  | 
18 | [2H]C([2H])([2H])c1cc2nccnc2c(C(C)Oc2ccc3[nH]nc(-c4cnn(C)c4)c3c2)n1 (stereo not drawn) [Example 241] | 13.5 |  |  | < 1 | 1 to 10 | 
19 | CC(Oc1ccc2[nH]nc(-c3cnn(C)c3)c2c1)c1c(CF)ccc2ncccc12 (stereo not drawn) [Example 130, 6-(fluoromethyl)-5-(1-((3-(1-methyl-1H-pyrazol-4-yl)-1H-indazol-5-yl)oxy)ethyl)q uinoline] | 37.9 | 1 to 10 | 10 to 100 |  |  | 
